Measured values published in patent US20230295197A1, “STAT5 and STAT6 Degraders and Uses Thereof” (REGENTS OF THE UNIVERSITY OF MICHICAN, priority 2022, published 2023).
Like-named read-outs stand apart in the source and are kept apart here.

Tests used:
[1] = test system: STAT5; assay: Immunoblotting (Western blot) analysis of STAT5 degradation efficiency of degraders in treated cells; type: cell-based
Summary of the method: (§1)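 Cells (~1 million per point) treated with compounds at indicated concentrations and times, lysed in RIPA with protease/phosphatase inhibitors; 20-40 μg protein run on SDS-PAGE and blotted to PVDF. STAT6 or STAT5 rabbit mAbs with GAPDH loading control, IRDye secondaries; near-infrared fluorescence scan, band intensity quantified.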

[2] = molecular target: T1, STAT6 (Homo sapiens, UniProt P42226); assay: Immunoblotting (Western blot) analysis of STAT6 degradation efficiency of degraders in treated cells; type: cell-based
T1 construct: endogenous in cells; host or cells: MOLM-16, KU-812, SKNO1, MB231, L1236
T1 sequence (P42226 1-847): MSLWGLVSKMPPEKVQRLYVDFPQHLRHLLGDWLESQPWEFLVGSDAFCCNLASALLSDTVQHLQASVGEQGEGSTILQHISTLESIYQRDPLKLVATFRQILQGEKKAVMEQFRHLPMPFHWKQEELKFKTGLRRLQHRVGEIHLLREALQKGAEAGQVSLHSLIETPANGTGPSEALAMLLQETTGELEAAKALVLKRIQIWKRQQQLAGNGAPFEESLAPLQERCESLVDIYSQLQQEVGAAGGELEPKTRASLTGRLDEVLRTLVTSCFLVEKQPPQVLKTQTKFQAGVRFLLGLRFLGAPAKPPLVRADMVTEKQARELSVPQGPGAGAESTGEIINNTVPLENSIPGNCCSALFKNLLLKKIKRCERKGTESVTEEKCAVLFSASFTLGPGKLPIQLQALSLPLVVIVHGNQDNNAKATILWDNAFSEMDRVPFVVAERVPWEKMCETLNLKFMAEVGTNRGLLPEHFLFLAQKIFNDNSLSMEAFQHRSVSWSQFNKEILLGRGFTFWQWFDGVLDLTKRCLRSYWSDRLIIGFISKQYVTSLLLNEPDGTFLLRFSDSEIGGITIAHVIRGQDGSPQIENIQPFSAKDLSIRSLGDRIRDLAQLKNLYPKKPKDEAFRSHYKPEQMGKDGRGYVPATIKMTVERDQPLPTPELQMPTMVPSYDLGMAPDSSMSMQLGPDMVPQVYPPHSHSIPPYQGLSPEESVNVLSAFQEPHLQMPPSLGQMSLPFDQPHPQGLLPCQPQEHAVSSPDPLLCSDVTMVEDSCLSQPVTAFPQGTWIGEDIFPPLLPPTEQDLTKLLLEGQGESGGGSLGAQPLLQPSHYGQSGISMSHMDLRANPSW
Summary of the method: as §1

[3] = MOLM-16 cells, numeric bound, read-out: DC50 S5 MOLM-16
[4] = MOLM-16 cells, numeric bound, read-out: DC50 S6 MOLM-16
[5] = MOLM-16 cells, class symbols, read-out: DC50 S5 MOLM-16
[6] = KU-812 cells, read-out: DC50 S5 KU-812
[7] = SKNO1 cells, read-out: DC50 S5 SKNO1
[8] = MOLM-16 cells, class symbols, read-out: DC50 S6 MOLM-16
[9] = MB231 cells, read-out: DC50 S6 MB231

| DC50 [2, 4] | DC50 [1, 5] | DC50 [1, 6] | DC50 [1, 7] | Compound | further results |
| --- | --- | --- | --- | --- | --- |
| > 300 nM | – | – | – | O=C(CCN(C(=O)CN1CCCC[C@H](NC(=O)c2cc3cc(C(F)(F)P(=O)(O)O)ccc3s2)C1=O)c1ccc(Br)cc1)NCCCC#Cc1cccc2c1CN(C1CCC(=O)NC1=O)C2=O (stereo partly drawn) [Compound 664, ((2-(((3S)-1-(2-((4-bromophenyl)(3-((5-(2-(2,6-dioxopiperidin-3-yl)-1-oxoisoindolin-4-yl)pent-4-yn-1-yl)amino)-3-oxopropyl)amino)-2-oxoethyl)-2-oxoazepan-3-yl)carbamoyl)benzo[b]thiophen-5-yl)difluoromethyl)phosphonic acid] | DC50 [1, 3]: > 300 nM |
| > 300 nM | < 100 nM | – | – | CN(CCCC#Cc1cccc2c1CN(C1CCC(=O)NC1=O)C2=O)C(=O)CCN(C(=O)[C@@H]1CCCN1C(=O)[C@@H](NC(=O)c1cc2cc(C(F)(F)P(=O)(O)OCOC(=O)C(C)(C)C)ccc2s1)C(C)(C)C)c1ccc(Br)cc1 (stereo partly drawn) [Compound 677, ((((2-(((2S)-1-((2S)-2-((4-bromophenyl)(3-((5-(2-(2,6-dioxopiperidin-3-yl)-1-oxoisoindolin-4-yl)pent-4-yn-1-yl)(methyl)amino)-3-oxopropyl)carbamoyl)pyrrolidin-1-yl)-3,3-dimethyl-1-oxobutan-2-yl)carbamoyl)benzo[b]thiophen-5-yl)difluoromethyl)(hydroxy)phosphoryl)oxy)methyl pivalate] | – |
| – | < 100 nM | 100 to 1000 nM | 100 to 1000 nM | CN(CCCC#Cc1cccc2c1CN(C1CCC(=O)NC1=O)C2=O)C(=O)CCN(C(=O)[C@@H]1CCCN1C(=O)[C@@H](NC(=O)c1cc2cc(C(F)(F)P(=O)(O)O)ccc2s1)C(C)(C)C)c1ccc2ccccc2c1 (stereo partly drawn) [Compound 680, ((2-(((2S)-1-((2S)-2-((3-((5-(2-(2,6-dioxopiperidin-3-yl)-1-oxoisoindolin-4-yl)pent-4-yn-1-yl)(methyl)amino)-3-oxopropyl)(naphthalen-2-yl)carbamoyl)pyrrolidin-1-yl)-3,3-dimethyl-1-oxobutan-2-yl)carbamoyl)benzo[b]thiophen-5-yl)difluoromethyl)phosphonic acid] | DC50 [2, 8]: > 10000 nM |
| – | < 100 nM | 100 to 1000 nM | 100 to 1000 nM | CC(C)(C)[C@H](NC(=O)c1cc2cc(C(F)(F)P(=O)(O)O)ccc2s1)C(=O)N1CCC[C@H]1C(=O)N(CCC(=O)NCCCC#Cc1cccc2c1CN(C1CCC(=O)NC1=O)C2=O)c1ccc(Br)cc1 (stereo partly drawn) [Compound 406, ((2-(((2S)-1-((2S)-2-((4-bromophenyl)(3-((5-(2-(2,6-dioxopiperidin-3-yl)-1-oxoisoindolin-4-yl)pent-4-yn-1-yl)amino)-3-oxopropyl)carbamoyl)pyrrolidin-1-yl)-3,3-dimethyl-1-oxobutan-2-yl)carbamoyl)benzo[b]thiophen-5-yl)difluoromethyl)phosphonic acid] | DC50 ([2]; KU-812 cells, read-out: DC50 S6 KU-812): > 10000 nM; DC50 [2, 9]: > 10000 nM; DC50 [2, 8]: > 10000 nM; DC50 ([2]; SKNO1 cells, read-out: DC50 S6 SKNO1): > 10000 nM |
| > 300 nM | < 100 nM | 100 to 1000 nM | 100 to 1000 nM | CC(C)(C)[C@H](NC(=O)c1cc2cc(C(F)(F)P(=O)(O)O)ccc2s1)C(=O)N1CCC[C@H]1C(=O)N(CCC(=O)NCCCC#Cc1cccc2c1CN(C1CCC(=O)NC1=O)C2=O)c1ccc2occc2c1 (stereo partly drawn) [Compound 661, ((2-(((2S)-1-((2S)-2-(benzofuran-5-yl(3-((5-(2-(2,6-dioxopiperidin-3-yl)-1-oxoisoindolin-4-yl)pent-4-yn-1-yl)amino)-3-oxopropyl)carbamoyl)pyrrolidin-1-yl)-3,3-dimethyl-1-oxobutan-2-yl)carbamoyl)benzo[b]thiophen-5-yl)difluoromethyl)phosphonic acid] | – |
| – | – | – | > 10000 nM | CN(C(=O)[C@@H]1C[C@@H](OCC(=O)NCCCCCCCCC#Cc2cccc3c2CN(C2CCC(=O)NC2=O)C3=O)CN1C(=O)[C@@H](NC(=O)c1cc2cc(C(F)(F)P(=O)(O)O)ccc2s1)C(C)(C)C)c1ccc(Br)cc1 (stereo partly drawn) [Compound 414, ((2-(((2S)-1-((2S,4R)-2-((4-bromophenyl)(methyl)carbamoyl)-4-(2-((10-(2-(2,6-dioxopiperidin-3-yl)-1-oxoisoindolin-4-yl)dec-9-yn-1-yl)amino)-2-oxoethoxy)pyrrolidin-1-yl)-3,3-dimethyl-1-oxobutan-2-yl)carbamoyl)benzo[b]thiophen-5-yl)difluoromethyl)phosphonic acid] | DC50 ([2]; L1236 cells, read-out: DC50 S6 L1236): > 10000 nM; DC50 [2, 9]: > 10000 nM |

| Compound | DC50 [2, 4] | DC50 [1, 5] | DC50 [1, 6] | DC50 [1, 7] | further results |
| --- | --- | --- | --- | --- | --- |
| Cc1ncsc1-c1ccc([C@H](CC(=O)NCCOCCC(=O)N[C@@H]2C[C@@H](C(=O)Nc3ncc(-c4ccccc4)s3)N(C(=O)[C@@H](NC(=O)c3cc4cc(C(F)(F)P(=O)(O)O)ccc4s3)C(C)(C)C)C2)NC(=O)[C@@H]2C[C@@H](O)CN2C(=O)[C@@H](NC(=O)C2(F)CC2)C(C)(C)C)cc1 [Compound 580, (difluoro(2-(((S)-1-((2S,4R)-4-(3-(2-((S)-3-((2S,4R)-1-((S)-2-(1-fluorocyclopropane-1-carboxamido)-3,3-dimethylbutanoyl)-4-hydroxypyrrolidine-2-carboxamido)-3-(4-(4-methylthiazol-5-yl)phenyl)propanamido)ethoxy)propanamido)-2-((5-phenylthiazol-2-yl)carbamoyl)pyrrolidin-1-yl)-3,3-dimethyl-1-oxobutan-2-yl)carbamoyl)benzo[b]thiophen-5-yl)methyl)phosphonic acid] | > 300 nM | – | – | – | DC50 [1, 3]: > 300 nM |
